{"source": "patent US6979447B2", "about": "“Immunomodulation and effect on cell processes relating to serotonin family receptors” (Philadelphia Health and Education Corporation, priority 2001, dated 2005)", "key": {"human lymphocytes [1]": {"system": "human lymphocytes", "assay": "Viable cell counts (trypan blue) during ConA stimulation of human lymphocytes", "assay_type": "cell-based", "details": "ConA 10 μg/ml, manual trypan blue counts, FIG. 11", "experimental": "FIG. 11 is a diagram depicting the effect of a 5HT type 1 receptor antagonist and a 5HT type 2 receptor antagonist on the cell numbers occurring during the mitogenic stimulation of human lymphocyte activation. The cells were stimulated with 10 μg/ml ConA. The cells were repurified on a Ficoll gradient prior to addition of the inhibitor. Trypan blue exclusion was used to count the viable cells.\nTo further assess the effects of propanolol (a general 5-HTR 1 antagonist) and risperidone (a general 5-HTR 2 antagonist) on the mitogenically stimulated lymphocyte culture, the number of viable cells were manually counted as the assay progressed. If the cells were not stimulated, there was no detectable change in the number of viable cells. When the cells were stimulated with ConA, a small lag period was observed and the beginning of the growth phase compared to the stimulation response curve observed in the absence of the inhibitor. […] Apparently, there is no decrease or increase compared with the starting cell numbers. It is unclear whether or not this is due too anergy, an inability to initiate the activation pathway, or both. […] Thus, based on the data presented here, the classes of antagonists that inhibit the type 2 serotonin receptors appear to be rate limiting for the lymphocyte activation processes."}, "[2]": {"system": "allogeneic CTL response to P815 cells", "assay": "Murine allograft model, CTL killing of P815 target cells by splenocytes", "assay_type": "in vivo, C57BL/6J mice", "details": "tail vein bolus 200 μg/injection on days 6 and 8, sacrificed day 14, FIG. 13", "experimental": "The in vivo validation screen used was an art-recognized murine allogeneic rejection model as described in Zhan et al., 2000. For this assay, a complete MHC miss-match system was employed wherein 5×10^6 P815 cells ([H-2^d] DBA/2 mastocytoma) were injected into the peritoneal cavity of C57BL/6J (H-2^b) mice on day 0 of the experiment. These mice typically generate a strong cytotoxic T lymphocyte (CTL) reaction in response to P815 cells. Following the initial P815 cell inoculation, the mice were allowed to develop a CTL response (this usually takes about 10-14 days). […] Mice were then sacrificed on day 14 of the experiment as indicated in the figures; and the allogeneic CTL response was assayed as described previously (Tretiakova et al., 2000, Nature Biotechnology 18:984-988). The primary spleen cells from the treated and untreated animals were used in the direct CTL readout. Freshly obtained primary spleen cells were incubated with the [^3H] labeled target cells (P815 cells) at 100:1, 50:1, 25:1, and 12.5:1 ratios for 3.5 hours at 37° C. and harvested using a PHD harvester. The percentage of specific killing was determined using the formula % kill=(S−E)/S, where S is the amount of the DNA retained by the target cells in the absence of the effector cells and E is the amount of retained DNA in the presence of the effector cells (expressed in counts per minute; cpm).\nThis is an art-recognized model of allograft […] rejection based on that described by […]. (2000). In this model, there is a complete MHC mismatch between the P815 cells (H-2^d) and the C57BL6 mouse (H-2^b), thus ensuring an aggressive immune response. The data disclosed in FIG. 13, depicts results of experiments that included 6 treatment groups, each group consisting of three mice. Each mouse received 5×10^6 P815 cells injected into the peritoneal cavity on day 0 of the study. The first group was an untreated control group, which was used to establish the baseline response of the mice against the allogeneic stimulus. These mice, without any further treatments, were sacrificed, as were the other treatment groups, on day 14 of the study and their splenocytes assayed for target-specific killing of the P815 cells.\nThe average kill observed for the untreated group was about 45% at an effector to target ratio of 100:1. […] The timing of the drug administration was selected to ensure that the T cells were fully activated prior to the drug treatment. The third group was treated with propanolol, a 5HT-1 antagonist. All of the 5HT receptor antagonist-treated groups were treated as described for the risperidone-treated group. The fourth group was treated chronically with CyclosporinA. The Cyclosporin A was administered ip at a dosage of 100 μg/injection starting two days prior to the onset of the study, i.e., at day-2, and the injections were continued on a daily basis for the duration of the study.\nFinally, studies conducted in vivo using the CD8-dependent allograft rejection model, in which P815 cells (a rapidly growing cell line taken from a mastocytoma in a DBA mouse), were expanded and used to create a robust rejection response in a C57BL6 mouse. In this study the mice received 5×10^6 P815 cells injected into their peritoneal cavity on day 0 of the study. The first group was an untreated control group (naïve animals), used to acquire the baseline response of the mice against the allogeneic stimulus. The positive controls were treated with the allogeneic cells without any further treatments. These animals were used to assess the induced allogeneic response against the P815 cells.\nAll treatment groups were sacrificed on day 14 of the study and their splenocytes assayed for target-specific killing of the P815 cells (the averaged overall kill observed for the positive control group was about 45% at an effector to target ratio of 100:1). The serotonin-specific compounds were administered via tail vein injection (300 μg/injection) on days 5 and 7 of the study. […]"}, "human lymphocytes [3]": {"system": "human lymphocytes", "assay": "Human mixed lymphocyte reaction (allogeneic stimulation)", "assay_type": "cell-based", "details": "harvested 120 hours", "description": "Blood from two healthy, non-related, donors was taken as described above. Peripheral blood mononuclear cells were isolated as described previously elsewhere. The adherent cells were separated from the suspension cells as described previously for both donors. Suspension cells from both donors (donors A and B) were used as responders. The remaining adherent cells from each of the donors were used as stimulators against a different donor (suspension A against adherent B and adherent A against suspension B). The stimulator cells were irradiated at 35 Gy. Drugs were pre-plated onto 96 well, U-bottom plates in triplicate. 200,000 “stimulator” cells in RPMI supplemented with 10% human serum were then plated in each well. 200,000 “responder” cells in the same medium were then plated over stimulators to a final volume of 200 μl/well. Background controls received either no stimulator cells, or no responder cells. The plates were incubated at 37° C. and 5% CO2. 1 μCi of tritiated thymidine was added to each well after 4.5 days, and the plates were harvested 12 hours later."}, "cells": {"system": "cells", "assay": "Cell morphology change on inhibition of serotonergic signalling", "assay_type": "cell-based", "details": "after 24 hours of treatment, FIG. 30", "experimental": "Briefly, cells were incubated with a 5-HTR antagonist (e.g., a selective type 1B inhibitor SD 216641) and the effects of treatment were assessed after 24 hours. […] For instance, detection of cell changes can be assessed using optical instruments (electron and light microscopy, as well as fluorescence activated cell sorting, and the like), or any other device that assesses and detects changes in cell size, density, morphology, and the like. Such devices are well known in the art and are not recounted here."}, "RPMI-8226 cells": {"system": "RPMI-8226 cells", "assay": "Hematoxylin-eosin / bis-benzamide staining of RPMI-8226 cytospins", "assay_type": "cell-based, human", "experimental": "2.0×10^5 RPMI-8226 cells were cultured, in 6-well culture plates, in the presence of the indicated drug concentrations, in a total of 5 mL RPMI-1640 supplemented with 10% FBS. Each well was harvested in its entirety and divided into two identical samples for cytospins.\n1.0×10^5 RPMI-8226 cells from each treatment group were loaded into Cyto-funnels and centrifuged at 500 rpm for 4 minutes with medium acceleration. Slides were then fixed through graded methanol in PBS (100%, 5 minutes; 80%, 5 minutes; 50%, 5 minutes), washed for 5 minutes in PBS and stored in PBS at 4° C. until stained.\nCytospun slides were stained with Hematoxylin and Eosin, followed by the nuclear stain, bis-benzamide, rinsed and mounted according to standard staining protocols. Slides were visualized under both brightfield and fluorescent light to generate matched images of the same slide field (see, e.g., FIGS. 28 and 29)."}, "[4]": {"system": "RPMI 8226 multiple myeloma cells", "assay": "RPMI 8226 cell proliferation / viability (trypan blue, MTT, 3H-thymidine)", "assay_type": "cell-based, human", "details": "low dose-titration, FIGS. 23, 24 and 25", "experimental": "The human plasmacytoma (multiple myeloma) cell line, RPMI 8226 (American Type Culture Collection, Manassas, Va.), was cultured in RPMI 1640 supplemented with 10 mM HEPES, 1 mM sodium pyruvate, 4.5 g/L glucose, 1.5 g/L bicarbonate and 20% FBS (non-heat inactivated).\nCell proliferation was assayed by three methods—Trypan Blue Exclusion was used to quantify the number of viable cells in culture; 3-(4,5-dimethylthiazol-2-yl)-2,5-diphenyl tetrazolium bromide (MTT) reduction was used to assay mitochondrial activity (and thus cell viability); and ^3H-Thymidine uptake was employed to assay for active DNA synthesis.\nThe following 5-HT receptor modulating compounds were tested for their effects on RPMI 8226 cells in vitro cultured at the described densities and across the indicated concentration ranges."}, "human lymphocytes [5]": {"system": "human lymphocytes", "assay": "Human mitogenic (ConA) stimulation, 3H-thymidine incorporation", "assay_type": "cell-based", "details": "harvested 72 hours", "experimental": "Blood from healthy volunteers was drawn using venipuncture, using Vacutainer collection sets and heparinized collection vials. The blood was diluted 1:1 using HBSS to a total volume of 30 ml in 50 ml conical tubes (Fisher Scientific, Co., Pittsburgh, Pa.). […] Cells from the buffy coats were collected and the residual Histopaque was washed away using repeated centrifugations in HBSS. After washes, cells were resuspended at 5 million cells per ml in RPMI, supplemented with 2% FBS. To remove adherent cells, the suspension was plated onto a 6 well flat-bottom plate (Corning Costar), 3 ml/well, and incubated for 2 hours at 37° C., 5% CO2. Non-adherent cells were harvested after this incubation, were counted and resuspended in RPMI supplemented with 10% human serum (Sigma).\nAll drugs were pre-plated before the cell suspension was added onto each well of a 96-well round-bottom plate. All experimental conditions were assayed in at least triplicate. Cells suspended in RPMI supplemented with 10% human serum were plated at 100,000 cells per well to a final volume of 200 μl. […] Control samples received no ConA stimulation. The plates were incubated at 37° C. and 5% CO2. One microCurie of tritiated thymidine was added to each well after 60 hours, and the plates were harvested 12 hours later."}}}
{"smiles": "CC(C)NC[C@H](O)COc1cccc2ccccc12", "note": "(racemic) [propanolol]", "values": [{"measurement": "effect on number of viable cells", "setting": "human lymphocytes [1]", "result": "prevents the cell from growing"}, {"measurement": "effect on allograft (CTL) response", "setting": "[2]", "result": "did not protect the mice from the allograft rejection response"}]}
{"smiles": "COc1ccc(NC(=O)c2ccc(-c3ccc(-c4noc(C)n4)cc3C)cc2)cc1OCCN(C)C", "note": "[SB 216641]", "values": [{"measurement": "effect on activation / proliferative response", "setting": "human lymphocytes [3]; allogeneic stimulation, FIGS. 7B, 8B, 9B", "result": "complete inhibition of the activation response"}, {"measurement": "IC50", "setting": "human lymphocytes [3]; allogeneic stimuli (mixed lymphocyte reaction), FIG. 7B, read-out: apparent IC50", "result": "~50", "unit": "nM"}, {"measurement": "change in cell morphology", "setting": "cells", "result": "an increase in cell size"}, {"measurement": "chromatin / nuclear morphology", "setting": "RPMI-8226 cells; 50 μM, 9 hour treatment, FIGS. 28, 29", "result": "Extensive chromatin condensation and nuclear fragmentation"}, {"measurement": "induction of programmed cell death", "setting": "RPMI-8226 cells; FIGS. 28 and 29", "result": "induced programmed cell death comparable to that induced by the topoisomerase I inhibitor, camptothecin"}, {"measurement": "effect on growth of RPMI-8226 cells", "setting": "[4]", "result": "completely inhibited the growth of the cancer cells"}, {"measurement": "effect on activation / proliferative response", "setting": "human lymphocytes [5]; ConA 5 μg/ml, FIGS. 7A, 8A, 9A", "result": "complete inhibition of the activation response"}, {"measurement": "IC50", "setting": "human lymphocytes [5]; ConA (5 μg/ml) stimulation of human lymphocytes, FIG. 7A, read-out: apparent IC50", "result": "~200", "unit": "nM"}]}
{"smiles": "Cc1nc2n(c(=O)c1CCN1CCC(c3noc4cc(F)ccc34)CC1)CCCC2", "note": "[risperidone]", "values": [{"measurement": "effect on number of viable cells", "setting": "human lymphocytes [1]", "result": "caused a brief cell increase, followed by the elimination of the cells in culture"}, {"measurement": "effect on allograft (CTL) response", "setting": "[2]", "result": "inhibited the allograft response to varying degrees"}]}
